Laboratory results published in patent US9181259B2 (LEO PHARMA A/S, priority 2012, dated 2015).
Entries after “also recorded” stand apart in the source; their conditions may differ. Counter-ions that a name gives are not always drawn.

Columns and labels:
NK1 receptor = molecular target: T1, NK1 receptor (Homo sapiens, UniProt P25103); assay: NK1 receptor mediated intracellular [Ca2+] mobilization in U251 MG cells using FLIPR; format: cell-based; conditions: antagonist potency against Substance P (EC80), normalized to 100 nM Aprepitant, read-out: U251MG (FLIPR pIC50) (converted)
T1 construct: Measurement of NK1 Receptor Mediated Intracellular [Ca^2+]; Mobilization in U251 MG Cells Using FLIPR; endogenous in cells; host or cells: U251 MG cells
Method in brief: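 Fluo-4-loaded U251 MG cells were preincubated with compound (0.5% DMSO final), with any agonist effect read for 5 min, then 10 min more at 37 °C before Substance P at EC80. Peak FLIPR fluorescence change was read, and IC50 came from a four-parameter fit as the midpoint between fitted top and bottom.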

[1] = Hepatic intrinsic clearance following incubation in human liver microsomes; format: in vitro ADME; conditions: NADPH regenerating system, 0-30 min, 37 °C
Method in brief: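 Compounds (from 50 µM working solution) are incubated with human liver microsomes diluted to 0.55 mg/mL in phosphate pH 7.4, with NADPH regeneration at 37 °C and sampling at 0–30 min. LC-MS/MS parent depletion gives kobs, scaled to mL/min/g liver. Eh uses 25.7 g liver/kg and 20.7 mL/min/kg blood flow.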

NK-1 receptor = molecular target: T2, NK-1 receptor (Meriones unguiculatus, UniProt Q5DUB1); assay: Gerbil scratching model (scratching induced by NK-1 agonist GR73632); format: in vivo, Mongolian gerbil; conditions: for attenuation of scratching induced in gerbils by the NK-1 selective agonist GR73632: topical application 1% w/v (20 μL) 20 min before i.d. GR73632 100 nmol/100 μL, male Mongolian gerbils
T2 construct: animals (male Mongolian gerbils) were shaved on the rostral part of the back; from tissue; host or cells: living male Mongolian gerbils (skin, topical application; in vivo)
Method: The gerbil was selected for this study as this species shares higher homology to the human in terms of NK-1 receptor pharmacology compared to other laboratory rodents.
Each test compound was tested on 11 or 12 animals. On the day of the test, the gerbils (four animals simultaneously) were put into a Plexiglas cage (42×42×35 cm) composed of four cells (20.5×20.5×35 cm) for 10 minutes of habituation. After this period, the test compound (1% w/v in acetone and transcutol 9:1) was topically applied on the shaven area in a volume of 20 μL. Topical application was performed using a Hamilton syringe (25 μL) and a square stencil of impermeable paper (1.5×1.5 cm) to allow application over a defined skin area (2.25 cm2). […] I.d. injection was made with a Hamilton syringe (250 μL) connected to a 27 gauge needle. Immediately after injection, animals were placed back into the same cell of the Plexiglas cage they were previously habituated in and their behaviour was recorded on video remotely for 30 minutes. The experimenter remained out of the observation room in order to minimize disturbance to the animals. The video was subsequently analysed to assess scratching behaviour. Scratching of the injection site by the hind paws was counted while scratching of other sites such as ears and snout were disregarded. Scratching episodes were measured over 10-minutes time intervals, for a total of 30 minutes.
Results were expressed as mean value±SEM. Statistical analysis was performed by a one-way ANOVA followed by LSD post hoc test with the exception of time-course analysis for a repeated-measure ANOVA followed by LSD post hoc test was performed.

T2 sequence (Q5DUB1 whole entry): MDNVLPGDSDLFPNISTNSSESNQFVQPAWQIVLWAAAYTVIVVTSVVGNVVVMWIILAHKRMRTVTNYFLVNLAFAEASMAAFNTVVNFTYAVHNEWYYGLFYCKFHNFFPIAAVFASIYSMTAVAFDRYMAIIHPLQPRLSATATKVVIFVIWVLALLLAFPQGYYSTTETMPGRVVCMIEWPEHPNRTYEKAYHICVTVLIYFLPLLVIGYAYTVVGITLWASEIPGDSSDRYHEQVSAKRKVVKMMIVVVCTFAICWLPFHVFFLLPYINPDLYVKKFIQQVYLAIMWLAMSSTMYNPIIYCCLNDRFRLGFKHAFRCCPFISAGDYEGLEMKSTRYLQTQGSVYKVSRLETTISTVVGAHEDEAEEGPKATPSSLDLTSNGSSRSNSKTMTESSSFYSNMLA
T1 sequence (P25103 whole entry): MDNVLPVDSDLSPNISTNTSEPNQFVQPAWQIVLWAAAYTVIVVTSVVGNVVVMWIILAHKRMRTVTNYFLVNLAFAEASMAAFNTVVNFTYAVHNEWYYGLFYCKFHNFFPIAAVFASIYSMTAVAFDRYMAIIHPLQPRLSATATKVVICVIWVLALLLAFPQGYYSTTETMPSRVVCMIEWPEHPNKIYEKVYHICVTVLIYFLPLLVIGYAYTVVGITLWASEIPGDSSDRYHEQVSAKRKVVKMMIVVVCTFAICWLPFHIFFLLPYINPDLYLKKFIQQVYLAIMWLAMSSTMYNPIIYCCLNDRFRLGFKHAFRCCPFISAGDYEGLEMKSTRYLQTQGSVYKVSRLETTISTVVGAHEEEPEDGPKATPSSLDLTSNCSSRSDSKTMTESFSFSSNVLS

Molecule: Cc1ccccc1C1C2CC(CN3CCOCC3)C(=O)N2CCN1C(=O)N(C)Cc1cc(C(F)(F)F)cc(C(F)(F)F)c1 (single isomer, unassigned) [Compound 38]
- IC50 (NK1 receptor): 0.195 nM
- Human in vitro Clint (mL/min/g liver) [1]: 3.3 mL/min/g liver
- attenuation of scratching induced in gerbils by the NK-1 selective agonist GR73632 (NK-1 receptor): not able to attenuate the scratching

Molecule: Cc1ccccc1[C@H]1[C@@H]2CCC(=O)N2CCN1C(=O)N(C)[C@H](C)c1cc(C(F)(F)F)cc(C(F)(F)F)c1 (single isomer, unassigned) [Compound 9]
- IC50 (NK1 receptor): 0.0347 nM
- Human in vitro Clint (mL/min/g liver) [1]: 4.5 mL/min/g liver
- attenuation of scratching induced in gerbils by the NK-1 selective agonist GR73632 (NK-1 receptor): able to attenuate the scratching

Molecule: Cc1ccccc1C1C2CC(CCO)(CCO)CN2CCN1C(=O)N(C)[C@H](C)c1cc(C(F)(F)F)cc(C(F)(F)F)c1 (single isomer, unassigned) [Compound 60]
- IC50 (NK1 receptor): 0.339 nM
- Human in vitro Clint (mL/min/g liver) [1]: 6.1 mL/min/g liver
- attenuation of scratching induced in gerbils by the NK-1 selective agonist GR73632 (NK-1 receptor): able to attenuate the scratching

Molecule: Cc1ccccc1[C@H]1[C@@H]2CC(CCO)(CCO)C(=O)N2CCN1C(=O)N(C)[C@H](C)c1cc(F)cc(C(F)(F)F)c1 [Compound 93, (1S,8aS)-N-((R)-1-(3-fluoro-5-(trifluoromethyl)phenyl)ethyl)-7,7-bis(2-hydroxyethyl)-N-methyl-6-oxo-1-o-tolylhexahydropyrrolo[1,2-a]pyrazine-2(1H)-carboxamide]
- IC50 (NK1 receptor): 0.0794 nM
- Human in vitro Clint (mL/min/g liver) [1]: 10 mL/min/g liver

Molecule: Cc1ccccc1[C@H]1[C@@H]2CC(CCO)(CCO)C(=O)N2CCN1C(=O)N(C)[C@H](C)c1cc(C(C)C)cc(C(F)(F)F)c1 [Compound 113, (1S,8aS)-7,7-bis(2-hydroxyethyl)-N-((R)-1-(3-isopropyl-5-(trifluoromethyl)phenyl)ethyl)-N-methyl-6-oxo-1-o-tolylhexahydropyrrolo[1,2-a]pyrazine-2(1H)-carboxamide]
- IC50 (NK1 receptor): 0.0316 nM
- Human in vitro Clint (mL/min/g liver) [1]: 56 mL/min/g liver

Molecule: CCc1cc([C@@H](C)N(C)C(=O)N2CCN3C(=O)C(CCO)(CCO)C[C@H]3[C@@H]2c2ccccc2C)cc(C(F)(F)F)c1 [Compound 110, (1S,8aS)-N-((R)-1-(3-ethyl-5-(trifluoromethyl)phenyl)ethyl)-7,7-bis(2-hydroxyethyl)-N-methyl-6-oxo-1-o-tolylhexahydropyrrolo[1,2-a]pyrazine-2(1H)-carboxamide]
- IC50 (NK1 receptor): 0.0631 nM
- Human in vitro Clint (mL/min/g liver) [1]: 13 mL/min/g liver

Molecule: 5-Aminopentanoyl-L-phenylalanyl-L-phenylalanyl-L-prolyl-L-(N-methyl)leucyl-L-methioninamide [GR73632, reference compound]
- induction of scratching (number of scratches) (NK-1 receptor; intradermal injection 100 nmol/100 μL, 30 min time course, repeated-measure ANOVA, gerbil): induced an increase in the number of scratches; also recorded: induced an increase of scratching

Molecule: Cc1ccccc1C1C2CC(CN3CCOCC3)C(=O)N2CCN1C(=O)N(C)Cc1cc(C(F)(F)F)cc(C(F)(F)F)c1 (single isomer, unassigned) [Compound 50]
- IC50 (NK1 receptor): 0.224 nM
- Human in vitro Clint (mL/min/g liver) [1]: 2.9 mL/min/g liver

Molecule: Cc1ccccc1C1C2CCCN2CCN1C(=O)N(C)[C@H](C)c1cc(C(F)(F)F)cc(C(F)(F)F)c1 (single isomer, unassigned) [Compound 63]
- IC50 (NK1 receptor): 0.324 nM
- Human in vitro Clint (mL/min/g liver) [1]: 11 mL/min/g liver

Molecule: Cc1ccccc1C1C2CC(C)(C(=O)N(C)C)C(=O)N2CCN1C(=O)N(C)Cc1cc(C(F)(F)F)cc(C(F)(F)F)c1 (single isomer, unassigned) [Compound 26, 2-N-{[3,5-bis(trifluoromethyl)phenyl]methyl}-2-N,7-N,7-N,7-tetramethyl-1-(2-methylphenyl)-6-oxo-octahydropyrrolo[1,2-a]piperazine-2,7-dicarboxamide]
- IC50 (NK1 receptor): 0.661 nM
- Human in vitro Clint (mL/min/g liver) [1]: 1.0 mL/min/g liver

Molecule: Cc1ccccc1[C@H]1[C@@H]2CC3(CCNCC3)C(=O)N2CCN1C(=O)N(C)[C@H](C)c1cc(C(F)(F)F)cc(C(F)(F)F)c1 [Compound 106, (1′S,8a′S)-N-((R)-1-(3,5-bis(trifluoromethyl)phenyl)ethyl)-N-methyl-6′-oxo-1′-o-tolyltetrahydro-1′H-spiro[piperidine-4,7′-pyrrolo[1,2-a]pyrazine]-2′(6′(6′H)-carboxamide, formic acid salt]
- IC50 (NK1 receptor): 0.115 nM
- Human in vitro Clint (mL/min/g liver) [1]: 0.19 mL/min/g liver

Molecule: Cc1ccccc1[C@H]1[C@@H]2CC(CCO)(CCO)C(=O)N2CCN1C(=O)N(C)[C@@H](C)c1cc(Cl)cc(C(F)(F)F)c1 [Compound 90, (1S,8aS)-N-((S)-1-(3-chloro-5-(trifluoromethyl)phenyl)ethyl)-7,7-bis(2-hydroxyethyl)-N-methyl-6-oxo-1-o-tolylhexahydropyrrolo[1,2-a]pyrazine-2(1H)-carboxamide]
- IC50 (NK1 receptor): 0.0398 nM
- Human in vitro Clint (mL/min/g liver) [1]: 7.6 mL/min/g liver

Molecule: Cc1ccccc1C1C2CC3(CCN(C)CC3)C(=O)N2CCN1C(=O)N(C)Cc1cc(C(F)(F)F)cc(C(F)(F)F)c1 (single isomer, unassigned) [Compound 47, N-{[3,5-bis(trifluoromethyl)phenyl]methyl}-N,1-dimethyl-4′-(2-methylphenyl)-1′-oxo-hexahydro-1′H-spiro[piperidine-4,2′-pyrrolo[1,2-a]piperazine]-5′-carboxamide]
- IC50 (NK1 receptor): 0.0933 nM
- Human in vitro Clint (mL/min/g liver) [1]: 0.4 mL/min/g liver

Molecule: COc1cc(CN(C)C(=O)N2CCN3C(=O)C(CCO)(CCO)C[C@H]3[C@@H]2c2ccccc2C)cc(C(F)(F)F)c1 [Compound 78, (1S,8aS)-7,7-bis(2-hydroxyethyl)-N-(3-methoxy-5-(trifluoromethyl)benzyl)-N-methyl-6-oxo-1-o-tolylhexahydropyrrolo[1,2-a]pyrazine-2(1H)-carboxamide]
- IC50 (NK1 receptor): 0.112 nM
- Human in vitro Clint (mL/min/g liver) [1]: 4.6 mL/min/g liver

Molecule: Cc1ccccc1C1C2CC(CN3CCCC3)C(=O)N2CCN1C(=O)N(C)Cc1cc(C(F)(F)F)cc(C(F)(F)F)c1 (single isomer, unassigned) [Compound 30, N-{[3,5-bis(trifluoromethyl)phenyl]methyl}-N-methyl-1-(2-methylphenyl)-6-oxo-7-(pyrrolidin-1-ylmethyl)-octahydropyrrolo[1,2-a]piperazine-2-carboxamide]
- IC50 (NK1 receptor): 0.38 nM
- Human in vitro Clint (mL/min/g liver) [1]: 2.4 mL/min/g liver

Molecule: Cc1ccccc1C1C2CC(CO)CN2CCN1C(=O)N(C)Cc1cc(C(F)(F)F)cc(C(F)(F)F)c1 (single isomer, unassigned) [Compound 52, N-{[3,5-bis(trifluoromethyl)phenyl]methyl}-7-(hydroxymethyl)-N-methyl-1-(2-methylphenyl)-octahydropyrrolo[1,2-a]piperazine-2-carboxamide; methanesulfonic acid salt]
- IC50 (NK1 receptor): 0.513 nM
- Human in vitro Clint (mL/min/g liver) [1]: 3.1 mL/min/g liver
